{"source": "patent US20230416196A1", "about": "“DIMER OF BIGUANIDINES AND THEIR THERAPEUTIC USES” (INSTITUT CURIE, priority 2020, published 2023)", "key": {"[1]": {"system": "inflammatory macrophages (act. MDM)", "test": "Flow cytometry of CD80 and CD86 cell surface markers in activated MDM (Example 2)", "assay_type": "cell-based, human", "settings": "LCC-12 10 μM; FIG. 4F", "experimental": "Cell culture. Peripheral blood samples were collected from distinct healthy donors (Etablissement Français du Sang). Pan monocytes were isolated by negative magnetic sorting using microbeads according to the manufacturer's instructions (Miltenyi Biotec, 130-096-537), and cultured in RPMI 1640 supplemented with glutamine (Thermo Fisher Scientific, 61870010), 10% fetal bovine serum and exposed to granulocyte-macrophage colony-stimulating factor (GM-CSF, Miltenyi Biotec, 130-093-866, 100 ng/mL) to induce differentiation into macrophages (MDM). At day 5 of differentiation, MDM were treated with lipopolysaccharides (LPS, InvivoGen, tlrl-3pelps, 100 ng/mL, 24 h) and interferon-γ (IFNγ, Miltenyi Biotec, 130-096-484, 20 ng/mL, 24 h) to generate activated MDM (act. MDM) and were co-treated with metformin (Met, 1,1-dimethylbiguanid hydrochloride, Alfa Aesar, J63361, 10 mM, 24 h) or LCC-12 (in-house, 10 μM, 24 h) as indicated.\nFlow cytometry. […] Macrophages were analyzed with an antibody panel consisting of antibodies against the following cell surface proteins: CD44, CD80, CD86 and TfR1. The data were analyzed with FlowJo software v. […] Flow cytometry analysis of lysosomal iron content: Lysosomal iron was monitored by incubating cells at 37° C. with 5% CO2 in medium containing RhoNox-M (in-house, 1 μM, 1 h), before flow analysis of fluorescence intensity."}, "[2]": {"system": "mitochondrial NAD^+ and NADH in aMDM", "test": "Mass spectrometry-based metabolomics of mitochondrial NAD+ and NADH in aMDM", "assay_type": "cell-based, human", "settings": "treatment during macrophage activation; FIG. 11D", "experimental": "Mitochondrial extraction. Mitochondria were isolated using the Qproteome Mitochondria Isolation Kit (Qiagen, 37612) according to the manufacturer's protocol. In brief, cells were washed and centrifuged at 500× g for 10 min and the supernatant was removed. Cells were then washed with a solution of 0.9% NaCl (Sigma-Aldrich, 57653-250G) and resuspended in ice-cold Lysis Buffer and incubated at 4° C. for 10 min. The lysate was then centrifuged at 1000×g for 10 min at 4° C. and the supernatant carefully removed. Subsequently, the cell pellet was resuspended in disruption buffer. Complete cell disruption was obtained by using a dounce homogenizer (mitochondria for ICP-MS) or a blunt-ended needle and a syringe (mitochondria for metabolomics). The lysate was then centrifuged at 1000× g for 10 min at 4° C. and the supernatant transferred to a clean tube. The supernatant was then centrifuged at 6000× g for 10 min at 4° C. to obtain pellets containing mitochondria.\nQuantitative metabolomics. In a typical experiment 1.5 million cells were used for total extracts and 15 million cells for mitochondrial extracts. Cells were harvested and the supernatant removed to generate the corresponding cell pellets. […] Peak detection and integration of the analytes were performed using the Agilent Mass Hunter quantitative software (B.07.01). […]"}}}
{"smiles": "N=C(N)NC(=N)NCCCCCCCCCCCCNC(=N)NC(=N)N", "note": "[LCC-12, lipophilic copper clamp C12]", "values": [{"measurement": "production of inflammatory macrophages according to CD80 and CD86 cell surface markers", "setting": "[1]", "value": "interfered with the production of inflammatory macrophages"}, {"measurement": "mitochondrial NAD^+ and NADH levels", "setting": "[2]", "value": "decrease of both mitochondrial NAD^+ and NADH"}]}
